The term Ki denotes the equilibrium dissociation constant of an inhibitor or competing ligand from its target.

Consider 16 compounds from patent US11242343B2 (Incyte Corporation, priority 2016, dated 2022).

This test has as its target HPK1 (Homo sapiens, UniProt Q92918). The experiment in a line: HPK1 Kinase Binding Assay. The note with it: LanthaScreen tracer 222 binding, one hour incubation at 25° C. Here is the method: Example A. HPK1 Kinase Binding Assay
A stock solution of 1 mM test compound was prepared in DMSO. The compound plate was prepared by 3-fold and 11-point serial dilutions. 0.1 μL of the compound in DMSO was transferred from the compound plate to the white 384 well polystyrene plates. The assay buffer contained 50 mM HEPES, pH 7.5, 0.01% Tween-20, 5 mM MgCl2, 0.01% BSA, and 5 mM DTT. 5 μl of 4 nM active HPK1 (SignalChem M23-11G) prepared in the buffer was added to the plate. The enzyme concentration given was based on the given stock concentration reported by the vender. 5 μl of 18 nM tracer 222 (ThermoFisher PV6121) and 4 nM LanthaScreen Eu-Anti GST antibody (ThermoFisher PV5595) were added. After one hour incubation at 25° C., the plates were read on a PHERAstar FS plate reader (BMG Labtech). Ki values were determined.
For orientation: Time-resolved FRET reads energy transfer from a long-lived donor to a nearby acceptor.

HPK1, sequence (Q92918 whole entry, looked up): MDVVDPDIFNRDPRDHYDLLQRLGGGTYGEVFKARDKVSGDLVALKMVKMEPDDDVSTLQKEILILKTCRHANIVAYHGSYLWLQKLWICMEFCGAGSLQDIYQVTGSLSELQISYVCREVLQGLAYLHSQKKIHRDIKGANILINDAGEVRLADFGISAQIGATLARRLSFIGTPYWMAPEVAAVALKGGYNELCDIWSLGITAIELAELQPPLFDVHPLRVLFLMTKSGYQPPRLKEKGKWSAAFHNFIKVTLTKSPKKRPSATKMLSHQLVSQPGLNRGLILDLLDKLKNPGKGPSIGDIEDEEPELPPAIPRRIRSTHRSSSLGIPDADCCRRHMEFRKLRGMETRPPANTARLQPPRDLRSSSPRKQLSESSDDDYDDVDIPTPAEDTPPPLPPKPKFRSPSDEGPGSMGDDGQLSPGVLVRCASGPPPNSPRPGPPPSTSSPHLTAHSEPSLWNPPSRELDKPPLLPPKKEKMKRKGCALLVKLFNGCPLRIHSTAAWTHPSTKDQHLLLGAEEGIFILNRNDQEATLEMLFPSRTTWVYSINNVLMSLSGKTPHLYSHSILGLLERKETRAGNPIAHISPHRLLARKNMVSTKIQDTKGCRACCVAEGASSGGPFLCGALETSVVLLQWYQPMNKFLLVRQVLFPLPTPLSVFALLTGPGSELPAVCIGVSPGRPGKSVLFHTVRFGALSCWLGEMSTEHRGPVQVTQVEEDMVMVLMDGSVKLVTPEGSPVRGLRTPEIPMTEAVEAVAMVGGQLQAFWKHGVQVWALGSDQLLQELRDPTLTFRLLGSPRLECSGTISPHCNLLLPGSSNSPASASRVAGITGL

As to `CNCc1cc(F)c(-c2ccc3[nH]nc(-c4ccc(N5CCN(C)CC5)cc4)c3n2)c(F)c1` [Example 61, 1-(3,5-Difluoro-4-(3-(4-(4-methylpiperazin-1-yl)phenyl)-1H-pyrazolo[4,3-b]pyridin-5-yl)phenyl)-N-methylmethanamine], the inhibition constant Ki is ≤ 100 nM. On to `Cc1cccc(F)c1-c1nc2c(-c3ccc(N4CCN(C)CC4)nc3)n[nH]c2cc1C#N` [Example 62], for which the Ki is ≤ 100 nM. With `Cc1cccc(F)c1-c1nc2c(-c3cnc(N4CCOCC4)nc3)n[nH]c2cc1C#N` [Example 63, 5-(2-Fluoro-6-methylphenyl)-3-(2-morpholinopyrimidin-5-yl)-1H-pyrazolo[4,3-b]pyridine-6-carbonitrile], the inhibitory constant (Ki) was ≤ 100 nM. For `CCN1CCN(c2ccc(-c3n[nH]c4cc(C#N)c(-c5c(C)cccc5F)nc34)cc2)CC1` [Example 64], the inhibition constant (Ki) was ≤ 100 nM. `CNC(=O)c1ccc(-c2n[nH]c3cc(C#N)c(-c4c(C)cccc4F)nc23)cn1` [Example 65, 5-(6-Cyano-5-(2-fluoro-6-methylphenyl)-1H-pyrazolo[4,3-b]pyridin-3-yl)-N-methylpicolinamide]: the Ki was ≤ 100 nM. Take `CNCc1cc(C)c(-c2nc3c(-c4cnn(C)c4)n[nH]c3cc2C#N)c(F)c1` [Example 66, 5-(2-Fluoro-6-methyl-4-((methylamino)methyl)phenyl)-3-(1-methyl-1H-pyrazol-4-yl)-1H-pyrazolo[4,3-b]pyridine-6-carbonitrile]: the inhibition constant Ki was ≤ 100 nM. Turning to `CNCc1cc(C)c(-c2nc3c(-c4ccc(N5CCN(C)CC5)nc4)n[nH]c3cc2C#N)c(F)c1` [Example 67, 5-(2-Fluoro-6-methyl-4-((methylamino)methyl)phenyl)-3-(6-(4-methylpiperazin-1-yl)pyridin-3-yl)-1H-pyrazolo[4,3-b]pyridine-6-carbonitrile], the inhibitory constant (Ki) was ≤ 100 nM.

Consider `CNCc1cc(C)c(-c2nc3c(-c4cnc(N5CCN(C)CC5)nc4)n[nH]c3cc2C#N)c(F)c1` [Example 68, 5-(2-Fluoro-6-methyl-4-((methylamino)methyl)phenyl)-3-(2-(4-methylpiperazin-1-yl)pyrimidin-5-yl)-1H-pyrazolo[4,3-b]pyridine-6-carbonitrile], for which the Ki is ≤ 100 nM. Take `CCN1CCN(c2ccc(-c3n[nH]c4cc(C#N)c(-c5c(C)cc(CNC)cc5F)nc34)cc2)CC1` [Example 69, 3-(4-(4-Ethylpiperazin-1-yl)phenyl)-5-(2-fluoro-6-methyl-4-((methylamino)methyl)phenyl)-1H-pyrazolo[4,3-b]pyridine-6-carbonitrile]: the Ki was ≤ 100 nM. Consider `CNCc1cc(C)c(-c2nc3c(-c4cnc(N5CCOCC5)nc4)n[nH]c3cc2C#N)c(F)c1` [Example 70, 5-(2-Fluoro-6-methyl-4-((methylamino)methyl)phenyl)-3-(2-morpholinopyrimidin-5-yl)-1H-pyrazolo[4,3-b]pyridine-6-carbonitrile], for which the Ki was ≤ 100 nM. Regarding `CNCc1cc(C)c(-c2nc3c(-c4ccc(C(C)(C)O)nc4)n[nH]c3cc2C#N)c(F)c1` [Example 71, 5-(2-Fluoro-6-methyl-4-((methylamino)methyl)phenyl)-3-(6-(2-hydroxypropan-2-yl)pyridin-3-yl)-1H-pyrazolo[4,3-b]pyridine-6-carbonitrile], the Ki is ≤ 100 nM.

On to `CNCc1cc(C)c(-c2nc3c(-c4ccc(C(=O)NC)nc4)n[nH]c3cc2C#N)c(F)c1` [Example 72, 5-(6-Cyano-5-(2-fluoro-6-methyl-4-((methylamino)methyl)phenyl)-1H-pyrazolo[4,3-b]pyridin-3-yl)-N-methylpicolinamide], for which the inhibition constant Ki was ≤ 100 nM. For `Cn1cc(-c2n[nH]c3cc(C#N)c(-c4c(F)ccc5c4CCNC5)nc23)cn1` [Example 74], the Ki is ≤ 100 nM. For `CCN1CCN(c2ccc(-c3n[nH]c4cc(C#N)c(-c5c(F)ccc6c5CCNC6)nc34)cc2)CC1` [Example 75], the Ki was ≤ 100 nM. Consider `CN1CCN(c2ccc(-c3n[nH]c4cc(C#N)c(-c5c(F)ccc6c5CCNC6)nc34)cn2)CC1` [Example 76], for which the Ki was ≤ 100 nM. To `Cc1cccc(F)c1-c1nc2c(-c3cnn(C)c3)n[nH]c2cc1C#N` [Example 77] belongs ≤ 100 nM.
